Results as given in article PMC11300601, “Zurletrectinib is a next-generation TRK inhibitor with strong intracranial activity against NTRK fusion-positive tumours with on-target resistance to first-generation agents” (British Journal of Cancer, 2024).

Experiments:
[1] = target: T1, TRKB (Homo sapiens, UniProt Q16620); test: In vitro HTRF kinase assay, recombinant TRKB; assay type: biochemical; details: WT, read-out: IC50 against TRKB recombinant kinase
T1 construct: purchased SignalChem Biotech Inc (Richmond, BC, Canada)
Method: Recombinant kinases were purchased from SignalChem Biotech Inc (Richmond, BC, Canada). In vitro kinase assays were performed following the optimization of the HTRF Kinase Assay (Cisbio). […] ATP concentrations ranged from 1 to 10 µM based on internal optimization.

[2] = tested on: Ba/F3 LMNA-NTRK1, TRKA G595R xenografts; test: Ba/F3 LMNA-NTRK1, TRKA G595R subcutaneous xenograft efficacy study; assay type: in vivo, BALB/c nude female mice
Method: KM12 and Ba/F3 LMNA-NTRK1, TRKA G595R xenografts were generated by subcutaneous injection of five and six million cells into the right flank of 6–8 weeks old BALB/c nude female mice, respectively. Treatment with zurletrectinib, selitrectinib and larotrectinib started at tumor reaching around 150 mm^3. Xenografts were randomized into different groups (8 mice per group) based on tumor size and dosed orally with zurletrectinib (0.1, 0.3, 1 mg/kg BID for KM12 models and 0.3, 1, 3 mg/kg BID for Ba/F3 models), selitrectinib (30 mg kg^−1 BID per day) and larotrectinib (30 mg kg^−1 BID) for constant 10 days or 23 days for KM12 or Ba/F3 models, respectively. Eight mice per group were included in each experiment. Randomization was conducted without utilizing a blind method. Tumors were measured twice weekly using calipers and body weight was also assessed twice weekly. At the end of each treatment, animals were euthanized. The vehicles were formulated as follows: were first dissolved in Cremophor EL/ethanol (50:50) as a 4× stock solution, vortexed, sonicated and then diluted to a 1× solution with saline before use.

T1 sequence (Q16620 32-822): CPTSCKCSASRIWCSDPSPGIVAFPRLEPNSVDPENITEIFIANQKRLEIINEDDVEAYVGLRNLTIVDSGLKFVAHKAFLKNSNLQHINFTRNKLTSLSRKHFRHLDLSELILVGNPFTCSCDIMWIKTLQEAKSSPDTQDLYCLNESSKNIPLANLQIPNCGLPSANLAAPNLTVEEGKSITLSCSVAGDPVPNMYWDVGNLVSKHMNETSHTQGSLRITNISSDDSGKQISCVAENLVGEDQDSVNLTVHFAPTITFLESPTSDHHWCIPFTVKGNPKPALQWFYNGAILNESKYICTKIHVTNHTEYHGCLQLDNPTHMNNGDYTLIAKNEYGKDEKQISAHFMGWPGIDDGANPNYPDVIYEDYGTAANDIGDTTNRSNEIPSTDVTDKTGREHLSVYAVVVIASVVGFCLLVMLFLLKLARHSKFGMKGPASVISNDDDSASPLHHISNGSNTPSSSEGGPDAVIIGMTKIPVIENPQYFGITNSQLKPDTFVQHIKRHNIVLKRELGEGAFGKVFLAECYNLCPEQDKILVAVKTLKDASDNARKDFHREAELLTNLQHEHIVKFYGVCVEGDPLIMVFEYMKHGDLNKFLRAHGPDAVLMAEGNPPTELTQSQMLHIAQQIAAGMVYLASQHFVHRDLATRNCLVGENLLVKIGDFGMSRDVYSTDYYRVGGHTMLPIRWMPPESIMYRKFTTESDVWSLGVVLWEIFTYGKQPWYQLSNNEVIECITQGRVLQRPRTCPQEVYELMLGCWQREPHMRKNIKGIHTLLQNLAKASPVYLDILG

zurletrectinib
IC50 [1]: 145 pM
Tumor growth inhibition compared with selitrectinib ([2]; 1 mg/kg orally twice a day, Ba/F3 LMNA-NTRK1 TRKA G595R xenograft): as effective as a dose of 30 mg/kg of selitrectinib
Tumor growth inhibition compared with selitrectinib ([2]; 3 mg/kg orally twice daily, tumor bearing mice (Fig. 3)): as effective as 30 mg/kg of selitrectinib
